≈ marks a conversion by molar mass, not a printed value. Calls of active or inactive are those of the source. The calls are words filed in the database; no cut-off is given here.
Columns and labels:
[1] = molecular target: T1, UDP-3-O-acyl-N-acetylglucosamine deacetylase (Pseudomonas aeruginosa (strain ATCC 15692 / PAO1 / 1C / PRS 101 / LMG12228), UniProt P47205); assay: Inhibition of histidine-tagged Pseudomonas aeruginosa LpxC (1-303) expressed in Escherichia coli BL21 (DE3) using UDP-3-O-(R-3-hydroxydecanoyl)-N-acetylglucosamine as substrate measured after 60 mins by LC-MS/MS analysis
T1 sequence (P47205 whole entry): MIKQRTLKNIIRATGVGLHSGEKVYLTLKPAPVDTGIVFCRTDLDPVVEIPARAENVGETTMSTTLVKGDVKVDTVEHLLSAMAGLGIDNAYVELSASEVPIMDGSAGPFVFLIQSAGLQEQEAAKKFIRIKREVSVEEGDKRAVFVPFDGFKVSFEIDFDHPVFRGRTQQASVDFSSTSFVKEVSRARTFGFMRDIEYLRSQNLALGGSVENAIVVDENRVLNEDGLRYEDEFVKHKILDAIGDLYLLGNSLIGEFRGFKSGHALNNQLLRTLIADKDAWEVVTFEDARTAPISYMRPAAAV

[2] = molecular target: T1, UDP-3-O-acyl-N-acetylglucosamine deacetylase; assay: Displacement of (S)-N-(2-(N-(3-biphenyl-4-ylcarboxamido-4-(hydroxyamino)-4-oxobutyl)sulfamoyl)ethyl)-3',6'-dihydroxy-3-oxo-3H-spiro[isobenzofuran-1,9'-xanthene]-5-carboxamide fluorescent probe from histidine tagged Pseudomonas aeruginosa LpxC (1-303) expressed in Escherichia coli BL21 (DE3) preincubated for 30 mins followed by addition of fluorscein probe measured after 2 hrs by fluorescence …
Escherichia coli [3] = assay: Antibacterial activity against Escherichia coli ATCC 25922 in presence of efflux pump inhibitor phenylalanine-arginine beta-naphthylamideby CLSI method; type: functional
[4] = molecular target: T1, UDP-3-O-acyl-N-acetylglucosamine deacetylase; assay: Inhibition of histidine-tagged Pseudomonas aeruginosa LpxC (1-303) expressed in Escherichia coli BL21 (DE3) using UDP-3-O-(R-3-hydroxydecanoyl)-N-acetylglucosamine as substrate measured after 60 mins by Fluorescence plate reader analysis
Pseudomonas aeruginosa [5] = assay: Antibacterial activity against Pseudomonas aeruginosa ATCC 27853 by CLSI method; type: functional
Pseudomonas aeruginosa [6] = assay: Antibacterial activity against Pseudomonas aeruginosa ATCC 27853 in presence of efflux pump inhibitor phenylalanine-arginine beta-naphthylamide by CLSI method; type: functional
Escherichia coli [7] = assay: Antibacterial activity against Escherichia coli ATCC 25922 by CLSI method; type: functional
Pseudomonas aeruginosa [8] = assay: Antibacterial activity against Pseudomonas aeruginosa 5567 in presence of human serum albumin by CLSI method; type: functional
Pseudomonas aeruginosa [9] = assay: Antibacterial activity against Pseudomonas aeruginosa 5567 in absence of human serum albumin by CLSI method; type: functional
Klebsiella pneumoniae = assay: Antibacterial activity against Klebsiella pneumoniae ATCC 13883 by CLSI method; type: functional
[10] = molecular target: Matrix metalloproteinase-9 (Homo sapiens, UniProt P14780); assay: Inhibition of human MMP-9 by fluorometric assay
Stromelysin-1 = Stromelysin-1 (Homo sapiens, UniProt P08254); assay: Inhibition of human MMP-3 by fluorometric assay
[11] = molecular target: 72 kDa type IV collagenase (Homo sapiens, UniProt P08253); assay: Inhibition of human MMP-2 by fluorometric assay
Chain of 72 kDa type IV collagenase (P08253 whole entry): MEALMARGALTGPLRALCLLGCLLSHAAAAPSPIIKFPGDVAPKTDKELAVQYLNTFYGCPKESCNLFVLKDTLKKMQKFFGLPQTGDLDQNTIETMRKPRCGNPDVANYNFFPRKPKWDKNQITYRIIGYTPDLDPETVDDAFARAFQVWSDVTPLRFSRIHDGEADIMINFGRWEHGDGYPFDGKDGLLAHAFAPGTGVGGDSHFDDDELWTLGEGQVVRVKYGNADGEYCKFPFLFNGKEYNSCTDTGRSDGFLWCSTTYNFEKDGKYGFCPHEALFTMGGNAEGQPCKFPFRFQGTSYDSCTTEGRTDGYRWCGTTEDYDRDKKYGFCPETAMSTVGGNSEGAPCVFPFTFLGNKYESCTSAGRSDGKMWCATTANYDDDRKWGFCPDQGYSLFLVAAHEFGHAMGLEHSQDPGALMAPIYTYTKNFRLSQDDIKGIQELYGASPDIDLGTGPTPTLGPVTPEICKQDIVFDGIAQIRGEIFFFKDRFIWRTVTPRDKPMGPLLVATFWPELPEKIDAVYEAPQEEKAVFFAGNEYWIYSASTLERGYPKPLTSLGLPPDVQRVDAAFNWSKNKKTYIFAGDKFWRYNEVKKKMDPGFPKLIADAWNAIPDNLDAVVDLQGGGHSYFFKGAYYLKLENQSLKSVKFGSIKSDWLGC

Chain of Stromelysin-1 (P08254 whole entry): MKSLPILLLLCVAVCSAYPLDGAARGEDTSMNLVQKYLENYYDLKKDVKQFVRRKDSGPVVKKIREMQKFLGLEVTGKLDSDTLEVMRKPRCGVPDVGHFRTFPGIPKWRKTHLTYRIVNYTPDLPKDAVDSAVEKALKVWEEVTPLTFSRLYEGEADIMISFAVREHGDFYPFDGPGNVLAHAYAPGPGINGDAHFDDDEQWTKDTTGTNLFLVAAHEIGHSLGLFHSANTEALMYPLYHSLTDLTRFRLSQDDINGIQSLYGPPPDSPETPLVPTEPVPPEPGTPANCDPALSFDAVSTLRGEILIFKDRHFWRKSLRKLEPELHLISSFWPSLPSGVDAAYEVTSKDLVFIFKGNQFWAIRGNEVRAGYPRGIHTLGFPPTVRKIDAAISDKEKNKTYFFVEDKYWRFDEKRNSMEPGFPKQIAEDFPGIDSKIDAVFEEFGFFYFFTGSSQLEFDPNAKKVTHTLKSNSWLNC
Chain of Matrix metalloproteinase-9 (P14780 whole entry): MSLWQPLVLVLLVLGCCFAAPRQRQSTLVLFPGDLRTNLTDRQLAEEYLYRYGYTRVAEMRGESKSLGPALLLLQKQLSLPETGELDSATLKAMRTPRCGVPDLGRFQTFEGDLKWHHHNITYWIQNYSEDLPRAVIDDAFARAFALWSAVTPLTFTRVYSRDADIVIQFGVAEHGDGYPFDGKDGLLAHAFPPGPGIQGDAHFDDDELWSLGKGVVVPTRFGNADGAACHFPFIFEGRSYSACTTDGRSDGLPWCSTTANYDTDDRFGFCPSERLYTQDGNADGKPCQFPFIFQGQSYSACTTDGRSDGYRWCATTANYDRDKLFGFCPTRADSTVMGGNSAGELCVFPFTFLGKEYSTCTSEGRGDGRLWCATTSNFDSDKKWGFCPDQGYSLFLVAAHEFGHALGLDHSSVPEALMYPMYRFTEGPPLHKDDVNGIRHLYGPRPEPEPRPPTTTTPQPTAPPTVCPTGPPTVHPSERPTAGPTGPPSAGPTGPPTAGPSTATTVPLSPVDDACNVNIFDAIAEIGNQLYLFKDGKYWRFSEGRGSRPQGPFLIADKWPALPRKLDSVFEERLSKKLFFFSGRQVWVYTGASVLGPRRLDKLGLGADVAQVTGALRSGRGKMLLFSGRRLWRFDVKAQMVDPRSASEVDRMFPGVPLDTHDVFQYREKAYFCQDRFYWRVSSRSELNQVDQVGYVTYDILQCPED

CS(=O)(=O)NC[C@@H](N)C(=O)Nc1cccc(OC(F)(F)F)c1
IC50 [1]: 43.8 µM | IC50 [2]: 37.9 µM

CC(O)c1nccn1Cc1ccc(C#Cc2ccccc2)cc1 (racemic)
Activity (Escherichia coli [3]): inactive | IC50 [4]: 0.568 µM | IC50 [2]: 0.0929 µM

CC(O)c1nccn1CCCc1ccc(-c2ccccc2)cc1 (racemic)
IC50 [4]: 0.133 µM | IC50 [2]: 0.0269 µM

Clc1ccc(CCCn2ccnc2)cc1
IC50 [4]: 111 µM | IC50 [2]: 125 µM

N[C@H](CO)C(=O)N1CCC(Cc2ccc(C#Cc3ccc(CO)cc3)cc2)CC1
MIC (Pseudomonas aeruginosa [5]): > 32 µg/mL | MIC (Pseudomonas aeruginosa [6]): 32 µg/mL | MIC (Escherichia coli [7]): > 32 µg/mL | MIC (Escherichia coli [3]): 16 µg/mL | IC50 [1]: 0.0221 µM

CC(O)c1nccn1Cc1ccc(Cl)cc1 (racemic)
IC50 [4]: 214 µM | IC50 [2]: 39.9 µM

C[C@H](O)c1nccn1Cc1cc(C#Cc2ccc(OCCCNCCN)cc2)on1
MIC (Pseudomonas aeruginosa [8]): 16 µg/mL | MIC (Pseudomonas aeruginosa [9]): 4 µg/mL (≈ 9.77 µM) | MIC (Klebsiella pneumoniae): 32 µg/mL (≈ 78.1 µM) | MIC (Pseudomonas aeruginosa [5]): 2 µg/mL (≈ 4.88 µM) | MIC (Escherichia coli [7]): 2 µg/mL (≈ 4.88 µM) | IC50 [4]: 0.00704 µM

N[C@H](CC(=O)O)C(=O)Nc1cccc(OC(F)(F)F)c1
IC50 [1]: 11.3 µM | IC50 [2]: 5.69 µM

C[C@H](O)c1nccn1Cc1cc(C#Cc2ccc(CCCO)cc2)on1
MIC (Pseudomonas aeruginosa [8]): > 64 µg/mL | MIC (Pseudomonas aeruginosa [9]): 16 µg/mL (≈ 45.5 µM) | MIC (Klebsiella pneumoniae): 2 µg/mL (≈ 5.69 µM) | MIC (Pseudomonas aeruginosa [5]): 32 µg/mL (≈ 91.1 µM) | MIC (Escherichia coli [7]): 0.5 µg/mL (≈ 1.42 µM) | IC50 [4]: 0.00403 µM

C[C@H](O)c1nccn1Cc1cc(C#Cc2ccc(OCC(N)(CO)CO)cc2)on1
IC50 [10]: > 100 µM | IC50 (Stromelysin-1): > 100 µM | IC50 [11]: > 100 µM | MIC (Pseudomonas aeruginosa [8]): 8 µg/mL | MIC (Pseudomonas aeruginosa [9]): 4 µg/mL (≈ 9.7 µM) | MIC (Klebsiella pneumoniae): 64 µg/mL (≈ 155 µM) | MIC (Pseudomonas aeruginosa [5]): 4 µg/mL (≈ 9.7 µM) | MIC (Escherichia coli [7]): 16 µg/mL (≈ 38.8 µM) | IC50 [4]: 0.02 µM

N[C@H](CO)C(=O)N1CCC(Cc2ccc(C#Cc3ccccc3)cc2)CC1
IC50 [1]: 0.034 µM

C[C@@H](O)c1nccn1Cc1cc(C#Cc2ccc(CCCO)cc2)on1
MIC (Pseudomonas aeruginosa [8]): > 128 µg/mL | MIC (Pseudomonas aeruginosa [9]): > 128 µg/mL | MIC (Klebsiella pneumoniae): > 128 µg/mL | MIC (Pseudomonas aeruginosa [5]): > 128 µg/mL | MIC (Escherichia coli [7]): > 128 µg/mL | IC50 [4]: 1.4 µM

N[C@H](CO)C(=O)N1CCC(Cc2ccccc2)CC1
IC50 [1]: 24.9 µM

NC[C@@H](N)C(=O)Nc1cccc(OC(F)(F)F)c1
IC50 [1]: 36.7 µM | IC50 [2]: 40.1 µM

CS(=O)(=O)C[C@H](O)[C@@H](N)C(=O)N1CCC(Cc2ccc(C#Cc3ccc(CO)cc3)cc2)CC1 (racemic)
IC50 [10]: > 100 µM | IC50 (Stromelysin-1): > 100 µM | IC50 [11]: > 100 µM | MIC (Pseudomonas aeruginosa [5]): 64 µg/mL (≈ 132 µM) | MIC (Pseudomonas aeruginosa [6]): 8 µg/mL | MIC (Escherichia coli [7]): 64 µg/mL (≈ 132 µM) | MIC (Escherichia coli [3]): 1 µg/mL

OC(COc1ccc(Cl)cc1)Cn1ccnc1 (racemic)
IC50 [4]: 466 µM | IC50 [2]: 259 µM

CS(=O)(=O)C[C@@H](N)C(=O)Nc1cccc(OC(F)(F)F)c1
IC50 [1]: > 100 µM | IC50 [2]: > 100 µM

N[C@H](CO)C(=O)N1CCC(Cc2ccc(CCc3ccccc3)cc2)CC1
IC50 [1]: 4.53 µM

CC(O)c1nccn1CCc1ccc(C#Cc2ccccc2)cc1 (racemic)
IC50 [4]: 2.4 µM | IC50 [2]: 1.76 µM

CC(O)c1nccn1Cc1cc(C#Cc2ccccc2)on1 (racemic)
MIC (Pseudomonas aeruginosa [8]): > 128 µg/mL | MIC (Pseudomonas aeruginosa [9]): 64 µg/mL (≈ 218 µM) | MIC (Klebsiella pneumoniae): 32 µg/mL (≈ 109 µM) | MIC (Pseudomonas aeruginosa [5]): > 128 µg/mL | MIC (Escherichia coli [7]): 16 µg/mL (≈ 54.5 µM) | IC50 [4]: 0.0475 µM | IC50 [2]: 0.0206 µM

N[C@H](CO)C(=O)N1CCC(Cc2ccc(-c3ccccc3)cc2)CC1
IC50 [1]: 0.66 µM

CC(O)c1nccn1CCCc1ccc(Cl)cc1 (racemic)
IC50 [4]: 10.4 µM | IC50 [2]: 0.809 µM

CNC(=O)[C@H](Cc1c[nH]c2ccccc12)NC(=O)[C@@H](CC(=O)NO)CC(C)C [ILOMASTAT]
IC50 (Stromelysin-1): 0.015 µM

CC(O)c1nccn1Cc1ccc(-c2ccccc2)cc1 (racemic)
IC50 [4]: 3.94 µM | IC50 [2]: 0.546 µM

NCC(=O)Nc1cccc(OC(F)(F)F)c1
IC50 [1]: 41.9 µM | IC50 [2]: 54.9 µM

O=C(NO)[C@@H](Cc1ccc2ccccc2c1)NS(=O)(=O)c1ccc2ccccc2c1
IC50 [10]: 0.0972 µM | IC50 (Stromelysin-1): 0.416 µM | IC50 [11]: 0.0175 µM

CC(O)c1nccn1Cc1cc(-c2ccccc2)on1 (racemic)
IC50 [4]: 0.884 µM | IC50 [2]: 0.125 µM

CC(O)c1nccn1CCc1ccc(Cl)cc1 (racemic)
IC50 [4]: 261 µM | IC50 [2]: 67.8 µM

OCc1nccn1CCCc1ccc(Cl)cc1
IC50 [4]: 108 µM | IC50 [2]: 36.7 µM

Clc1ccc(OCCCn2ccnc2)cc1
IC50 [4]: 144 µM | IC50 [2]: 118 µM

CC(O)c1nccn1Cc1cc(C#Cc2ccc(CCCO)cc2)on1 (racemic)
MIC (Pseudomonas aeruginosa [8]): > 128 µg/mL | MIC (Pseudomonas aeruginosa [9]): 32 µg/mL (≈ 91.1 µM) | MIC (Klebsiella pneumoniae): 4 µg/mL (≈ 11.4 µM) | MIC (Pseudomonas aeruginosa [5]): 64 µg/mL (≈ 182 µM) | MIC (Escherichia coli [7]): 2 µg/mL (≈ 5.69 µM) | IC50 [4]: 0.00896 µM

C[C@H](O)c1nccn1Cc1cc(C#Cc2ccc(OC3CN(CCO)C3)cc2)on1
MIC (Pseudomonas aeruginosa [8]): 16 µg/mL | MIC (Pseudomonas aeruginosa [9]): 4 µg/mL (≈ 9.79 µM) | MIC (Klebsiella pneumoniae): 4 µg/mL (≈ 9.79 µM) | MIC (Pseudomonas aeruginosa [5]): 4 µg/mL (≈ 9.79 µM) | MIC (Escherichia coli [7]): 4 µg/mL (≈ 9.79 µM) | IC50 [4]: 0.00442 µM

Clc1ccc(CCCCn2ccnc2)cc1
IC50 [4]: 60.4 µM | IC50 [2]: 43.2 µM

CC(O)c1nccn1CCc1ccc(-c2ccccc2)cc1 (racemic)
IC50 [4]: 10.4 µM | IC50 [2]: 6.48 µM

OC(COc1ccccc1)Cn1ccnc1 (racemic)
IC50 [4]: 1130 µM | IC50 [2]: > 2000 µM

CC(O)c1nccn1CCCc1ccc(C#Cc2ccccc2)cc1 (racemic)
IC50 [4]: 0.161 µM | IC50 [2]: 0.0522 µM

C[C@H](O)c1nccn1Cc1cc(C#Cc2ccc(OCCCNC3COC3)cc2)on1
MIC (Pseudomonas aeruginosa [8]): 64 µg/mL | MIC (Pseudomonas aeruginosa [9]): 8 µg/mL (≈ 18.9 µM) | MIC (Klebsiella pneumoniae): 1 µg/mL (≈ 2.37 µM) | MIC (Pseudomonas aeruginosa [5]): 8 µg/mL (≈ 18.9 µM) | MIC (Escherichia coli [7]): 1 µg/mL (≈ 2.37 µM) | IC50 [4]: 0.00463 µM

Clc1ccc(CCn2ccnc2)cc1
IC50 [2]: 2780 µM

CS(=O)(=O)CC[C@@H](N)C(=O)Nc1cccc(OC(F)(F)F)c1
IC50 [1]: 10 µM | IC50 [2]: 8.97 µM

Reference: ChEMBL document CHEMBL4673300, “Fragment-Based Discovery of Novel Non-Hydroxamate LpxC Inhibitors with Antibacterial Activity” (J Med Chem, 2020)
